Data on one molecule can be found in patent US20230085307A1, “PYRIDAZINONE COMPOUND AND HERBICIDE” (NISSAN CHEMICAL CORPORATION, priority 2019, published 2023).

Each structure is given as a SMILES string.

One data set relates to redroot pigweed. Kind of data set: Test Example 4: herbicidal effect by soil treatment (Table 19, symbol N). It counts as in vivo, redroot pigweed (Amaranthus retroflexus). Particulars: amount of applied herbicide 320 g/ha. In a few lines: (§1)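 Soil-surface application: an emulsion agent diluted with water to the predetermined dose is sprayed uniformly over seeds lying under roughly 1.5 cm of sterilized diluvial soil. Boxes stay in a greenhouse at 25° C. to 30° C. Three weeks later, each species is graded on previously defined criteria.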

In the next data set the test system is directly sowed rice. In words: Test Example 3: effect on crop by foliage application, Wagner pot (Table 18, symbol b). Format: in vivo. Particulars: amount of applied herbicide 320 g/ha. The protocol:
[Test Example 3] Herbicidal Effect Test by Foliage Application After alluvial soil was placed into 1/10000 are of Wagner pot, water was poured and mixed to form a submerged condition having a water depth of 0.1 cm to 0.5 cm. Seeds of barnyard grass, Chinese sprangletop, rice flat sedge, and rice were sowed and the pot was placed in a greenhouse at 25° C. to 30° C. for growth of the plants. After 14-day growth of the plants, the emulsion agent of the compound of the present invention prepared according to Formulation Example 2 was diluted with water so as to achieve a predetermined herbicide amount, and the diluted emulsion agent was uniformly applied to a foliage part with a small-sized spray. Three weeks after the herbicide application, the effect of the herbicide on each plant was evaluated according to the criteria of Test Example 1.

A further data set concerns wild oat. Kind of data set: Test Example 4: herbicidal effect by soil treatment (Table 19, symbol I). It counts as in vivo, wild oat (Avena fatua). Particulars: amount of applied herbicide 320 g/ha. In a few lines: as §1
In a further data set the test system is Chinese sprangletop. Kind of data set: Test Example 3: herbicidal effect by foliage application, Wagner pot (Table 18, symbol D). Particulars: amount of applied herbicide 320 g/ha. It counts as in vivo, chinese sprangletop (Leptochloa chinensis). The essentials:
(§2)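 Plants were sown in alluvial soil held under 0.1–0.5 cm standing water and grown 14 days in a greenhouse at 25–30 °C. An emulsifiable formulation, water-diluted to the set dose, was then sprayed onto the foliage, and effects were scored three weeks later using previously defined criteria.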

Another data set has as its system southern crabgrass. Kind of data set: Test Example 4: herbicidal effect by soil treatment (Table 19, symbol F). Format: in vivo, southern crabgrass (Digitaria ciliaris). Particulars: amount of applied herbicide 320 g/ha. The essentials:
as §1

In a further data set the test system is Italian ryegrass. In words: Test Example 4: herbicidal effect by soil treatment (Table 19, symbol K). Format: in vivo, Italian ryegrass (Lolium multiflorum). The settings on record: amount of applied herbicide 320 g/ha. In a few lines:
as §1

For data set [1], the system named is barnyard grass. Kind of data set: Test Example 3: herbicidal effect by foliage application, Wagner pot (Table 18, symbol H). Particulars: amount of applied herbicide 320 g/ha. It counts as in vivo, barnyard grass (Echinochloa crus-galli). The essentials: as §2
The next data set deals with rapeseed. In words: Test Example 4: effect on crop by soil treatment (Table 19, symbol g). It counts as in vivo. Particulars: amount of applied herbicide 320 g/ha. From the text:
(§3) [Test Example 4] Herbicidal Effect Test by Soil Treatment
(§4) Sterilized diluvial soil was placed in a plastic box having a length of 21 cm, a width of 13 cm, and a depth of 7 cm. The seeds of each of southern crabgrass, green foxtail, barnyard grass, wild oat, blackgrass, Italian ryegrass, windgrass, velvetleaf, redroot pigweed, lambsquarters, chickweed, false cleavers, persian speedwell, corn, soybean, rice, wheat, beet, and rapeseed were sowed in a spot-like manner and covered with the soil having a thickness of about 1.5 cm. Subsequently, the emulsion agent of the compound of the present invention prepared according to Formulation Example 2 was diluted with water so as to achieve a predetermined herbicide amount, and the diluted emulsion agent was uniformly applied to the surface of the soil with a small-sized spray. The plastic box was placed in a greenhouse at 25° C. to 30° C. for growth of the plants. Three weeks after the herbicide application, the effect of the herbicide on each plant was evaluated according to the criteria of Test Example 1.

Another data set concerns velvetleaf. Kind of data set: Test Example 4: herbicidal effect by soil treatment (Table 19, symbol M). Format: in vivo, velvetleaf (Abutilon theophrasti). The settings on record: amount of applied herbicide 320 g/ha. The essentials: as §1
Data set [2] relates to barnyard grass. In words: Test Example 4: herbicidal effect by soil treatment (Table 19, symbol H). Format: in vivo, barnyard grass (Echinochloa crus-galli). Particulars: amount of applied herbicide 320 g/ha. The essentials:
as §1

Another data set relates to soybean. Kind of data set: Test Example 4: effect on crop by soil treatment (Table 19, symbol d). Format: in vivo. The settings on record: amount of applied herbicide 320 g/ha.
Description: as §3, §4

For a further data set, the system named is wheat. Kind of data set: Test Example 4: effect on crop by soil treatment (Table 19, symbol e). It counts as in vivo. Particulars: amount of applied herbicide 320 g/ha.
Description: as §3, §4

The next data set deals with rice flat sedge. Kind of data set: Test Example 3: herbicidal effect by foliage application, Wagner pot (Table 18, symbol E). The settings on record: amount of applied herbicide 320 g/ha. Format: in vivo, rice flat sedge (Cyperus iria). In a few lines:
as §2

Another data set deals with corn. In words: Test Example 4: effect on crop by soil treatment (Table 19, symbol c). It counts as in vivo. The settings on record: amount of applied herbicide 320 g/ha.
Description: as §3, §4

The subject of the next data set is green foxtail. Kind of data set: Test Example 4: herbicidal effect by soil treatment (Table 19, symbol G). It counts as in vivo, green foxtail (Setaria viridis). The settings on record: amount of applied herbicide 320 g/ha. The essentials:
as §1

A further data set deals with lambsquarters. Kind of data set: Test Example 4: herbicidal effect by soil treatment (Table 19, symbol O). Format: in vivo, lambsquarters (Chenopodium album). The settings on record: amount of applied herbicide 320 g/ha. The essentials: as §1
The next data set deals with beet. Kind of data set: Test Example 4: effect on crop by soil treatment (Table 19, symbol f). The settings on record: amount of applied herbicide 320 g/ha. It counts as in vivo.
Description: as §3, §4

Another data set has as its system blackgrass. Kind of data set: Test Example 4: herbicidal effect by soil treatment (Table 19, symbol J). Format: in vivo, blackgrass (Alopecurus myosuroides). Particulars: amount of applied herbicide 320 g/ha. In a few lines:
as §1

The test system of a further data set is windgrass. In words: Test Example 4: herbicidal effect by soil treatment (Table 19, symbol L). It counts as in vivo, windgrass (Apera spica-venti). The settings on record: amount of applied herbicide 320 g/ha. The essentials:
as §1

With `COc1ccccc1-c1sc2ccc(SC(F)(F)F)cc2c1-c1c(O)c(C)nn(C)c1=O` [Compound No. 2-378, 5-hydroxy-4-(2-(2-methoxyphenyl)-5-((trifluoromethyl)thio)benzo[b]thiophen-3-yl)-2,6-di methylpyridazin-3(2H)-one], the melting point (in general, the temperature, or range, at which the solid turns liquid) lay in the range of 183 to 186 °C. Besides, the “herbicidal effect, N: redroot pigweed” value with redroot pigweed was 4 (Herbicidal rate of 70% or more and less than 90%). The “effect on crop b: directly sowed rice” value in the data set with directly sowed rice is 0 (Herbicidal rate of 5% or less (almost no effect)). The “herbicidal effect, I: wild oat” value in the data set on wild oat is reported as 0 (Herbicidal rate of 5% or less (almost no effect)). The “herbicidal effect on D: Chinese sprangletop” value with Chinese sprangletop is 5 (Herbicidal rate of 90% or more (almost completely withered)). Besides, the “herbicidal effect, F: southern crabgrass” value with southern crabgrass was 0 (Herbicidal rate of 5% or less (almost no effect)). Also, the “herbicidal effect, K: Italian ryegrass” value in the data set with Italian ryegrass is on record as 0 (Herbicidal rate of 5% or less (almost no effect)). The “herbicidal effect on H: barnyard grass” value in the data set on barnyard grass [1] is 5 (Herbicidal rate of 90% or more (almost completely withered)). Moreover, in the data set with rapeseed, the “effect on crop, g: rapeseed” value is 0 (Herbicidal rate of 5% or less (almost no effect)). Also, in the data set on velvetleaf, the “herbicidal effect, M: velvetleaf” value is reported as 0 (Herbicidal rate of 5% or less (almost no effect)). The “herbicidal effect, H: barnyard grass” value with barnyard grass [2] was 0 (Herbicidal rate of 5% or less (almost no effect)). Moreover, in the data set on soybean, the “effect on crop, d: soybean” value is on record as 0 (Herbicidal rate of 5% or less (almost no effect)). Also, the “effect on crop, e: wheat” value with wheat was 0 (Herbicidal rate of 5% or less (almost no effect)). Also, the “herbicidal effect on E: rice flat sedge” value with rice flat sedge was 3 (Herbicidal rate of 40% or more and less than 70%). Also, the “effect on crop, c: corn” value with corn was 0 (Herbicidal rate of 5% or less (almost no effect)). Besides, in the data set on green foxtail, the “herbicidal effect, G: green foxtail” value is given as 0 (Herbicidal rate of 5% or less (almost no effect)). Further, in the data set with lambsquarters, the “herbicidal effect, O: lambsquarters” value is 2 (Herbicidal rate of 20% or more and less than 40%). For the same molecule, in the data set on beet, the “effect on crop, f: beet” value is given as 0 (Herbicidal rate of 5% or less (almost no effect)). In addition, the “herbicidal effect, J: blackgrass” value with blackgrass is given as 0 (Herbicidal rate of 5% or less (almost no effect)). Besides, the “herbicidal effect, L: windgrass” value in the data set on windgrass is reported as 0 (Herbicidal rate of 5% or less (almost no effect)).
